The target in assay [1] is CRE1/AHK4 (Arabidopsis thaliana, UniProt Q9C5U0). The assay is described as follows: Activation of cytokinin receptors (E. coli KMI001 beta-galactosidase reporter). In kind it is cell-based. The settings on record: 17 h incubation; n.a. means no activation. On the procedure:
(§1) Escherichia coli strains KMI001 harbouring the plasmid […]4 or […]3 were grown overnight at 25° C. in M9 media enriched with 0.1% casamino acids to OD600 1. The preculture was diluted 1:600 in 1 ml M9 medium containing 0.1% casamino acids and 1 μl stock solution of either the tested compound (10^-7 M-5×10^-5 M) or solvent control (DMSO, ethanol, methanol) were added. The cultures were further grown at 25° C. in microtiter plate, 200 μl per well. […] The cultures were centrifuged and 50 μl aliquots of the supernatant were transferred to microtiter plate containing 2 μl 150 mM 4-methyl umbelliferyl galactoside which was subsequently incubated for 1 h at 37° C. The reaction was stopped by adding 100 μl 0.2 M Na2CO3. […] The EC50 value, the compound concentration activating the receptor to 50%, was calculated from the obtained dose response curves. The values shown in Table 10 are means of three replicates and the entire test was repeated at least twice.

Assay [2] addresses T1, AHK3 (Arabidopsis thaliana, UniProt Q9C5U1).
T1 sequence (Q9C5U1 1-1036): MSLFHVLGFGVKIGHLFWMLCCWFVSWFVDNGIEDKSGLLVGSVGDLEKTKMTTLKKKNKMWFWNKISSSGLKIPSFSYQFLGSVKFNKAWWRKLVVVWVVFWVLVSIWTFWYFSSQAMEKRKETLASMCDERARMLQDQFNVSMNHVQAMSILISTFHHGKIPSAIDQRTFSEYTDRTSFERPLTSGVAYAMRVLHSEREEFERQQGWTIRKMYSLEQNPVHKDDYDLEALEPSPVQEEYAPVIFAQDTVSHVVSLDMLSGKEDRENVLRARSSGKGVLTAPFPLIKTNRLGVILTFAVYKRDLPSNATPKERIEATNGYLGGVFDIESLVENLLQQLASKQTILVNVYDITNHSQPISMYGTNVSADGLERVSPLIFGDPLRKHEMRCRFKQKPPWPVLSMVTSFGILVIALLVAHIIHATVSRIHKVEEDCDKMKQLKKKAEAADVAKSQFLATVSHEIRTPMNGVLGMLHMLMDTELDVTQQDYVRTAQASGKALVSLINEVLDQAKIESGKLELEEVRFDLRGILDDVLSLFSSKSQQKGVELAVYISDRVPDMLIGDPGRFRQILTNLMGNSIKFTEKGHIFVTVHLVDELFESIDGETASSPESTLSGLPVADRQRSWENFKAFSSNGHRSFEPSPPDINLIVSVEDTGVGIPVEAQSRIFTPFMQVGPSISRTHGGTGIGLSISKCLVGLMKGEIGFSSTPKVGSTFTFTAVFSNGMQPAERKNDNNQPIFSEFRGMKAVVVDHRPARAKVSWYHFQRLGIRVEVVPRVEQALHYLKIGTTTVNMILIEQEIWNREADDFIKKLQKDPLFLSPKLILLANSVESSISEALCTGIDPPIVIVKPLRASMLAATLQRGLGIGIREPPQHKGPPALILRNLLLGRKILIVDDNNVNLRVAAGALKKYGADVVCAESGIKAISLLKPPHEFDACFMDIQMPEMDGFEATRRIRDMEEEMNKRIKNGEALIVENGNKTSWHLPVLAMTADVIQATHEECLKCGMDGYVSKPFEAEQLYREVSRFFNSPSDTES
Described as above. In kind it is cell-based. The note with it: 28 h incubation; n.a. means no activation. On the procedure: as §1

The subject of assay [3] is cytokinin-dependent tobacco callus Nicotiana tabacum L. cv. Wisconsin 38. As to the kind of experiment: Tobacco callus biotest (plant cell division). In kind it is cell-based. The note with it: at the concentration with highest activity, relative to 10^−5 M kinetin. The procedure: The stimulatory effect of the newly prepared derivatives was tested in the calus biotest using cytokinin-dependent tobacco callus. Cytokinin-dependent tobacco callus Nicotiana tabacum L. cv. Wisconsin 38 was maintained at 25° C. in darkness on modified Murashige-Skoog medium, containing per 1 liter: 4 μmol of nicotinic acid, 2.4 μmol of pyridoxine hydrochloride, 1.2 μmol of thiamine, 26.6 μmol of glycine, 1.37 μmol of glutamine, 1.8 μmol of myo-inositol, 30 g of sucrose, 8 g of agar, 5.37 μmol of NAA and 0.5 μmol of 6-benzylaminopurine. Subcultivation was carried out every three weeks. Fourteen days before the bioassay, the callus tissue was transferred to the media without 6-benzylaminopurine. The biological activity was determined from the increase of the fresh callus weight after four weeks of cultivation. Five replicates were prepared for each concentration of the compound tested and the entire test was repeated twice. […] The compounds to be tested were dissolved in dimethylsulfoxide (DMSO) and the solution brought up to 10^−3 M with distilled water.
From the obtained data, the concentration with the highest activity was selected for each compound tested. Relative activity of the compound at this concentration was calculated (Table 11). The activity obtained for 10^−5 M of the control substance kinetin (K) was postulated as 100%.

Assay [4] concerns Amaranthus caudatus cotyledon/hypocotyl explants. The assay is described as follows: Amaranthus bioassay (betacyanin content). In kind it is cell-based, Amaranthus caudatus var. atropurpurea. The settings on record: at the concentration with highest activity, relative to 10^−5 M kinetin. The procedure:
The standard Amaranthus bioassay was performed with the following modifications. The seeds of Amaranthus caudatus var. atropurpurea were surface-sterilised in 10% (w/v) N-chlorobenzenesulfonamide for 10 min and washed 5 times with deionized water. They were placed in 15 cm Petri dishes containing paper tissues saturated with deionized water. After 72 h of cultivation at 25° C. in darkness, the roots of the seedlings were cut off. The explants, consisting of two cotyledons and hypocotyls, were placed in 5 cm Petri dishes onto two layers of filtration paper soaked with 1 ml of the incubation medium containing 10 μmol of Na2HPO4—KH2PO4, pH 6.8, 5 μmol of tyrosine and the compound to be tested. There were 20 explants per dish. The procedure was carried out under green safe light in a darkroom. After 48 h of incubation at 25° C. in darkness, betacyanin was extracted by freezing the explants in 4 ml 3.33 μM acetic acid. The concentration of betacyanin was determined from the absorbances at 537 nm and 620 nm as follows: ΔA=A537nm−A620nm. The values ΔA were plotted against the concentration tested, are means of five replicates and the entire test was repeated at least twice. […] The compounds to be tested were dissolved in dimethylsulfoxide (DMSO) and the solution brought up to 10^−3M with distilled water.
From the obtained data, the concentration with the highest activity was selected for each compound tested. Relative activity of the compound at this concentration was calculated (Tab. 12). The activity obtained for 10^−5 M kinetin (K) was postulated as 100%.

Assay [5] concerns the target T2, recombinant AtCKX2 (Arabidopsis thaliana, UniProt Q9FUJ3).
T2 sequence (Q9FUJ3 23-501): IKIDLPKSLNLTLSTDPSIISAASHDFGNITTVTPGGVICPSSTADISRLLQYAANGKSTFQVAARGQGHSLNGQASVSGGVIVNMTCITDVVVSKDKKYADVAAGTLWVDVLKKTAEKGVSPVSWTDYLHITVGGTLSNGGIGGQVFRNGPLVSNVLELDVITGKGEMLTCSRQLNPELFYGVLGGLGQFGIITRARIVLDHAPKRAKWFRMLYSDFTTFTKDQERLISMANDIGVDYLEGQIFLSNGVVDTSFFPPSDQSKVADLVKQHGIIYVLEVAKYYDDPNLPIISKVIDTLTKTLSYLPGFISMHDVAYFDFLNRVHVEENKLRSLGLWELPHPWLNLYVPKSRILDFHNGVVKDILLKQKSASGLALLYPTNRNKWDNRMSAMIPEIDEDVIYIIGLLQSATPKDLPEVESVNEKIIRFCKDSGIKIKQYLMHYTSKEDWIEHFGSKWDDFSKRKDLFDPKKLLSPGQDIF
As to the kind of experiment: Inhibition of cytokinin oxidase/dehydrogenase activity (PMS/MTT microtitre plate assay). Format: biochemical. The procedure: IC50 determinations were done using the assay in microtitre plate. Each well contained 100 μL of PMS/MTT [phenazine methosulfate/3-(4,5-dimethylthiazol-2-yl)-2,5-diphenyltetrazolium bromide] reaction mixture (final concentrations: 0.1 M KH2PO4, pH 7.4, 1 mM MTT, 0.2 mM PMS) containing the tested compound (3×10^−7 M-3×10^−4 M) and 30 μM N^6-isopentenyladenine (iP) as a substrate. 100 μL of cell-free growth medium of S. cerevisiae strain 23344c ura^− harboring the plasmid pYES2-AtCKX2 was directly used as a source of AtCKX2. Plates were incubated in the dark for […] at 37° C. and the enzymatic reaction was stopped by 25 μL of 35% acetic acid. The absorbance at 578 nm was measured using spectrophotometer Tecan. Absorbance of the sample without iP was subtracted.
The IC50 value, the compound concentration that inhibits the enzyme activity to 50%, was calculated from the obtained dose response curves. The values shown in Table 9 are means of three replicates and the entire test was repeated at least twice.
(In general: Formazan colour is commonly taken as a measure of viable cells.)

[6] abbreviates: 30 μM iP as substrate, pH 7.4, 37° C., means of three replicates, read-out: IC50, inhibition of recombinant AtCKX2.

pEC50, pIC50: −log10 of the molar value. Where two headings read alike, the source gives them in different places. Where only a bound is given, the exact number is not on record here.

CRE1/AHK4, sequence (Q9C5U0 whole entry): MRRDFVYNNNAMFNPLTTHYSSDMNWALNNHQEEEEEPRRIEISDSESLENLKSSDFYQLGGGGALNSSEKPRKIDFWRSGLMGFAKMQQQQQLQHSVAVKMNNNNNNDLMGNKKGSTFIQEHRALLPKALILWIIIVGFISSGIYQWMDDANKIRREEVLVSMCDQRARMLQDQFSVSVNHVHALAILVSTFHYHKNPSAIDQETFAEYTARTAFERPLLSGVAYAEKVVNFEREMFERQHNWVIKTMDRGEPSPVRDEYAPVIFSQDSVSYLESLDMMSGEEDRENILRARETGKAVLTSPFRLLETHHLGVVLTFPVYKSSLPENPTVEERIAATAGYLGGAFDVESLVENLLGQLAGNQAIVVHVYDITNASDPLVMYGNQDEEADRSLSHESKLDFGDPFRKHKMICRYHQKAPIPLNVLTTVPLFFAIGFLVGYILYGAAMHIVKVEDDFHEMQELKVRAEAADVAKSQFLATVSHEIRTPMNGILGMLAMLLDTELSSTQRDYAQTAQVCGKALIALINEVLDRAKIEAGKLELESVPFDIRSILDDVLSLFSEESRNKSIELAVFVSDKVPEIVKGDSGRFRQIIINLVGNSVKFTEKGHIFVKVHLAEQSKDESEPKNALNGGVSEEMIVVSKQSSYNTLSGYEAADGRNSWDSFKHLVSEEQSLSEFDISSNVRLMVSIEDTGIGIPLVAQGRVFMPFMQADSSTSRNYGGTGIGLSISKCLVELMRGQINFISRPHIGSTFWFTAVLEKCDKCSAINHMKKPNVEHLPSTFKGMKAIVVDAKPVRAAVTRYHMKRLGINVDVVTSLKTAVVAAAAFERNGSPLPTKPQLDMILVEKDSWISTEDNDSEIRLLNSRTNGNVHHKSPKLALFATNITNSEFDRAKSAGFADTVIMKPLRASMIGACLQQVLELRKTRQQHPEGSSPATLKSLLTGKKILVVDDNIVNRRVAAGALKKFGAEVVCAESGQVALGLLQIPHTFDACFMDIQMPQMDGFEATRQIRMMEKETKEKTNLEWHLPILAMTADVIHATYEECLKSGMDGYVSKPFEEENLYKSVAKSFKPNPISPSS

Turning to `Cc1ccc(Nc2nc(Cl)nc3[nH]cnc23)cc1C` [Compound 30], the results for the pEC50 in assay [1] and in assay [2] were 4.48 and less than 4.30, respectively.

On to `Oc1ccccc1Nc1nc(F)nc2[nH]cnc12` [Compound 47], for which the pEC50 in assay [1] was less than 4.30; in assay [2], 4.34.

Turning to `Oc1ccc(Nc2nc(F)nc3[nH]cnc23)cc1` [Compound 49], the pEC50 is 4.43 in assay [1] and less than 4.30 in assay [2]. In assay [3], the “Activity (%) [10^−5 mol · l^−1 K = 100%]” value is 106%.

With `COc1ccccc1Nc1nc(F)nc2[nH]cnc12` [Compound 50], the figures for the “Activity (%) [10^−5 mol · l^−1 K = 100%]” value in assay [4] and in assay [3] were 105.2% and 117.6%, respectively. Further, the pEC50 in assay [1] was less than 4.30; in assay [2], 4.76.

Consider `Nc1nc(Nc2cccc(F)c2)c2nc[nH]c2n1` [Compound 69], for which, in assay [4], the “Activity (%) [10^−5 mol · l^−1 K = 100%]” value was 113.2%. The negative-log IC50 (pIC50) in assay [5] (setting [6]) was 4.53. In assay [2], the negative logarithm of the EC50 (pEC50) was less than 4.30.

On to `Nc1nc(Nc2ccccc2O)c2[nH]cnc2n1` [Compound 71], for which the pEC50 in assay [1] and in assay [2] was less than 4.30 throughout.

`COc1cccc(Nc2nc(N)nc3nc[nH]c23)c1` [Compound 75, 2-Amino-6-(3-methoxyanilino)purine]: the “Activity (%) [10^−5 mol · l^−1 K = 100%]” value in assay [4] amounted to 123.6%. Also, in assay [5] (setting [6]), the pIC50 was 4.61. This molecule gave a pEC50 in assay [2] of 4.69.

For `Sc1nc(Nc2cccc(Cl)c2)c2nc[nH]c2n1` [Compound 80], the “Activity (%) [10^−5 mol · l^−1 K = 100%]” value in assay [4] was 106%; in assay [3], 126%. For the same molecule, the pIC50 in assay [5] (setting [6]) is 4.55. This molecule also gave a pEC50 in assay [2] of 4.38.

As for `COc1cccc(Nc2nc(S)nc3[nH]cnc23)c1` [Compound 88], the “Activity (%) [10^−5 mol · l^−1 K = 100%]” value in assay [4] came out at 113.4%; in assay [3] it was 103.4%. Besides, the pIC50 in assay [5] (setting [6]) was 4.55. In assay [2], the pEC50 was 4.50.

For `CSc1nc(Nc2cccc(Cl)c2)c2nc[nH]c2n1` [Compound 96], the “Activity (%) [10^−5 mol · l^−1 K = 100%]” value in assay [4] came out at 145.8%; in assay [3], 121.2%. Besides, the pEC50 is 4.39 in assay [1] and 4.54 in assay [2].

`CSc1nc(Nc2cccc(F)c2)c2nc[nH]c2n1` [Compound 98]: the results for the “Activity (%) [10^−5 mol · l^−1 K = 100%]” value in assay [4] and in assay [3] were 142.5% and 130.3%, respectively. The pEC50 in assay [1] is 4.31; in assay [2], 4.49.

For the molecule `Cc1nc(Nc2cccc(Cl)c2)c2nc[nH]c2n1` [Compound 111], in assay [5] (setting [6]), the pIC50 is 4.80. In assay [2], this molecule had a pEC50 of less than 4.30. The “Activity (%) [10^−5 mol · l^−1 K = 100%]” value in assay [3] came out at 128.3%.

As to `Cc1nc(Nc2cccc(F)c2)c2nc[nH]c2n1` [Compound 113], the “Activity (%) [10^−5 mol · l^−1 K = 100%]” value was 120.2% in assay [4] and 125.3% in assay [3]. Also, the pIC50 in assay [5] (setting [6]) is 4.66.

Regarding `COc1cccc(Nc2nc(C)nc3nc[nH]c23)c1` [Compound 118, 2-Methyl-6-(3-methoxyanilino)purine], the “Activity (%) [10^−5 mol · l^−1 K = 100%]” value in assay [4] is reported as 144.2%; in assay [3], 105.7%. Besides, the negative logarithm of the IC50 (pIC50) in assay [5] (setting [6]) is 5.03. Also, the pEC50 in assay [2] was less than 4.30.

Consider `O=C(Nc1ccccc1)Nc1cnns1` [thidiazuron, reference compound], for which the pIC50 in assay [5] is 4.52.

The pEC50 is the EC50 on a negative log10 scale, so that one unit is a factor of ten. The low end stands for a large EC50, the high end for a small EC50. The pIC50 is −log10 of the IC50, conventionally taken in molar units.

For the origin of these results see patent US8222260B2, “Substituted 6-anilinopurine derivatives as inhibitors of cytokinin oxidase/dehydrogenase and preparations containing these derivatives” (Univerzita Palackego V Olomouci, priority 2007, dated 2012).
